The nature of the series: Plasma levels after oral administration in mice. Type of series: in vivo. The note with it: 20 mg/kg oral. The source says:
The mice (C57BL/6J, male, 6-8 weeks) were from Charles River Spain (Barcelona). The procedures and animal care were based on institutional standards and complied with national and international laws and policies (Directive 86/609, OJ L 358. 1 of the Council of the European Community, of 12 Dec. 1987) and the “Guide for the Care and Use of Laboratory Animals” of the National Institutes of Health (NIH, USA) (NIH Publication No. 85-23, 1985). All the animals were fed according to concentrated laboratory diets (Letica, Barcelona, Spain) allowing them free access to food and submitting them to a cycle of 12 hours of light/12 hours of darkness with ambient temperature of 22° C. The experiments were begun at 10.00 a.m. to minimize the effects of diurnal variations.
For the pharmacokinetic studies and for the daily treatment, the mice were administered i.v. (via the jugular vein, where a permanent catheter had previously been fixed by surgical methods; i.v. administration was carried out slowly for 1 minute), and orally (via stomach tube), 20 mg/kg of t-PTER (dissolved in ethanol 0.5 ml/kg of animal weight) or QUER (dissolved in dimethylsulfoxide:saline, 1:0.5 0.15 ml/kg of weight). In general, the compositions based on a combination of PTER and QUER can contain, as excipients, those stated previously or any others that are pharmaceutically acceptable. The presentation of said compositions can be, non-limitatively, in the form of solids such as tablets, capsules, pellets, pills, etc. and liquid presentations such as drops, syrups, injectables, etc. Moreover, the active principles (PTER and QUER) of the composition can be in their uncombined forms or in the form of pharmaceutically acceptable salts, including esters. The t-PTER was synthesized in our laboratory following standardized reactions of Wittig and Heck (www.orgsyn.org), whereas the QUER was obtained from Sigma Chemical Co. (San Luis, Mo., USA). The ^3H-t-PTER (2.2 Ci/mmol), labeled in the ortho and para positions of the benzene rings, was prepared in our laboratory according to a method similar to that used for the deuteration of phenols (18). ^14C-QUER (50 mCi/mmol), labeled in position 4 of the carbon ring, was obtained from the NCI Radiochemical Carcinogen Repository of Chemsyn Laboratories (Kansas City, Mo., USA). The radioactivity was measured using a Varisette 2700 TR analyzer from Packard. Blood was collected by means of the catheter in 1-ml syringes that contained heparin sodium (0.05 ml of a 5% solution in […]). The plasma and the erythrocytes were separated as described previously (19).
LC-MS/MS was carried out using a Quattro Micro triple quadrupole mass spectrometer (Micromass, Manchester, UK) equipped with an LC-10Advp pump, an SLC-10Avp control system and an SIL-10Advp autoinjector from Shimadzu. The samples were analyzed by reverse-phase high-performance liquid chromatography using a Prodigy ODS column (100×2 mm) from Phenomenex (Torrance, Calif., USA), with a particle size of 3 μm. In all cases, 40 μl was injected into the column. Column temperature was maintained at 25° C. The following gradient system was used, pumped through the column at 0.2 ml/minute (min/% A/% B/% C) (A, methanol; B, 10% acetonitrile and 90% ammonium formate 10 mM pH 3.75; C, ammonium formate 10 mM pH 3.75): 0/5/5/90, 10/5/5/90, 20/5/90/5, 30/100/0/0, 40/5/5/90. The negative ion tandem mass spectra obtained by electrospray were recorded with the electrospray capillary fixed at […] and at a temperature of the source block of 120° C. Nitrogen was used as nebulizer gas and drying gas, with flows of 300 and 30 l/h, respectively. Argon at 1.5×10^−3 mbar was used as the collision gas for collision-induced dissociation. A test was carried out based on LC-MS/MS with tracking of multiple reactions using the transitions m/z 255-240 for PTER and […] for QUER, which in both cases represent favorable fragmentation routes for these deprotonated molecules. […]

We go through two compounds from US8227510B2, “Combine use of pterostilbene and quercetin for the production of cancer treatment medicaments” (Universitat de Valencia, priority 2004, dated 2012).

Each structure is given as a SMILES string. Marks after values point to notes of the source that are not given here. Where only a bound is given, the exact number is not on record here.

`COc1cc(/C=C/c2ccc(O)cc2)cc(OC)c1` [PTER, pterostilbene]: the “time of peak of plasma levels” value came to 60 min. In addition, for the setting “5 minutes”, the “Plasma level (total)” value came to 2900 ± 600 nM and the “Plasma level, % free” value came out at 67 ± 13 % free. Besides, for the setting “10 minutes”, the “Plasma level (total)” value was 6600 ± 1800 nM and the “Plasma level, % free” value was 50 ± 10 % free. Where the note is “30 minutes”, the “Plasma level (total)” value was determined as 11100 ± 3000 nM and the “Plasma level, % free” value is reported as 35 ± 5 % free. Besides, under “60 minutes”, the “Plasma level (total)” value amounted to 18200 ± 2700 nM and the “Plasma level, % free” value turned out to be 17 ± 6 % free. Besides, under “120 minutes”, the “Plasma level (total)” value came to 13300 ± 3400 nM and the “Plasma level, % free” value is listed as 15 ± 3 % free. Also, under “240 minutes”, the “Plasma level (total)” value was found to be 10600 ± 1200 nM and the “Plasma level, % free” value amounted to 16 ± 4 % free. Under “480 minutes”, the “Plasma level (total)” value was determined as 7100 ± 800 nM and the “Plasma level, % free” value is listed as 14 ± 4 % free. For the setting “720 minutes”, the “Plasma level (total)” value came to 1600 ± 500 nM and the “Plasma level, % free” value came to 12 ± 2 % free. Besides, where the note is “between 30 and 240 minutes”, the “free PTER as percentage of the total” value is reported as 15-35% and the “total concentration of PTER in plasma” value is above 10 µM.
For the compound `O=c1c(O)c(-c2ccc(O)c(O)c2)oc2cc(O)cc(O)c12` [QUER, quercetin], the “time of peak of plasma levels” value amounted to 10 min. Under “5 minutes”, the “Plasma level (total)” value amounted to 1600 ± 300 nM and the “Plasma level, % free” value came out at 22 ± 6 % free. Moreover, under “10 minutes”, the “Plasma level (total)” value was found to be 2300 ± 700 nM and the “Plasma level, % free” value was <0.5* % free. Besides, under “30 minutes”, the “Plasma level (total)” value was 600 ± 200 nM and the “Plasma level, % free” value was <0.5* % free. For the same compound, for the setting “60 minutes”, the “Plasma level (total)” value is 200 ± 100 nM and the “Plasma level, % free” value was <0.5* % free. Besides, where the note is “120 minutes”, the “Plasma level (total)” value stood at 70 ± 10 nM and the “Plasma level, % free” value is on record as <0.5* % free. Moreover, under “240 minutes”, the “Plasma level (total)” value came out at 50 ± 20 nM and the “Plasma level, % free” value was <0.5* % free. Moreover, for the setting “480 minutes”, the “Plasma level (total)” value was found to be 50 ± 20 nM and the “Plasma level, % free” value is <0.5* % free. Where the note is “720 minutes”, the “Plasma level (total)” value worked out at 40 ± 10 nM and the “Plasma level, % free” value is <0.5* % free. In addition, where the note is “except for the first 5 minutes”, the “free QUER as percentage of the total” value was found to be 0.5%. Also, under “first 10 minutes”, the “levels of total QUER in plasma” value is above 1000 nM.
